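Exposure lasted 48 hours, with cells grown in 96-well plates and compounds tested at five concentrations. At the GI50, growth is halved.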 Calls of active or inactive are those of the source. No stated cut-off is given here; in the data, active = GI50 up to about 1.1 µM and inactive = higher. Bounds are passed on as bounds.

Among the test systems are ACHN; CAKI-1; CCRF-CEM; HCT-116; IGROV-1; LOX IMVI; M14; NCI-H226; NCI-H522; OVCAR-8; RXF 393; SF-295; SK-MEL-2; SK-MEL-5; SN12C; SNB-75; SW-620; A498.
Holding throughout (test): NCI tumour cell line growth inhibition, 48 h

With `CCOC(=O)C1Cc2c(ccc(OC)c2OC)C(=O)C1N` (stereo not drawn), the GI50 with ACHN, with CAKI-1, in the assay with CCRF-CEM, in the assay with HCT-116, with IGROV-1 and in the assay on LOX IMVI was > 100 µM (inactive) throughout. Also, the GI50 in the assay with M14, in the assay with NCI-H226, with NCI-H522, in the assay with OVCAR-8, with RXF 393 and in the assay on SF-295 was > 100 µM (inactive) in each case. Further, the GI50 in the assay on SK-MEL-2, in the assay with SK-MEL-5, in the assay with SN12C, in the assay on SNB-75 and in the assay on SW-620 was > 100 µM (inactive) each time.
Take `CCCCCCCCCCCCCCC1OC(=O)c2ccccc21` (stereo not drawn): the GI50 with A498 was > 100 µM (inactive); with ACHN, 43.5 µM (inactive); with CCRF-CEM it was 32.7 µM (inactive); in the assay on HCT-116, 34.6 µM (inactive); in the assay on IGROV-1, 89.5 µM (inactive); in the assay with LOX IMVI it was 86.1 µM (inactive). Moreover, the GI50 was > 100 µM (inactive) in the assay on M14; 53.3 µM (inactive) in the assay with NCI-H226; 55.8 µM (inactive) in the assay on OVCAR-8; 52 µM (inactive) with RXF 393; > 100 µM (inactive) with SF-295; 24.5 µM (inactive) with SN12C. Moreover, the GI50 in the assay on SNB-75 was > 100 µM (inactive); with SW-620, 63.4 µM (inactive).
For the compound `Cc1cc(Cl)ccc1N1C(=O)C(=O)C(c2nc3ccccc3s2)C(=O)C1=O`, the GI50 in the assay with A498, with ACHN, in the assay on CAKI-1, in the assay on CCRF-CEM, in the assay with HCT-116 and with IGROV-1 was > 100 µM (inactive) in each case. Further, the GI50 in the assay on M14, in the assay on NCI-H226, in the assay with NCI-H522, with OVCAR-8, in the assay with SF-295 and in the assay on SK-MEL-2 was > 100 µM (inactive) each time. For the same compound, the GI50 in the assay with SK-MEL-5, with SN12C, in the assay with SNB-75 and in the assay with SW-620 was > 100 µM (inactive) throughout.
As for `CCc1ccccc1NC(=O)C(=O)C1C(=O)N(c2ccccc2)N=C1N` (stereo not drawn), the GI50 with A498, with ACHN, in the assay with CAKI-1, in the assay with HCT-116, in the assay on IGROV-1 and in the assay on LOX IMVI was > 100 µM (inactive) each time. The GI50 in the assay with M14, in the assay with NCI-H226, with OVCAR-8, in the assay on RXF 393, in the assay on SF-295 and in the assay with SK-MEL-2 was > 100 µM (inactive) each time. Also, the GI50 with SK-MEL-5, in the assay on SN12C, in the assay with SNB-75 and in the assay with SW-620 was > 100 µM (inactive) throughout.
`CC(CNCCCNCCNCCCNCO)[N+](=O)[O-]` (stereo not drawn): the GI50 in the assay with A498 is 17.5 µM (inactive); in the assay on ACHN it was 16.7 µM (inactive); with CAKI-1, 6.11 µM (inactive); with CCRF-CEM, 2.75 µM (inactive); in the assay on HCT-116, 10.8 µM (inactive); in the assay on IGROV-1, 20.4 µM (inactive). Moreover, the GI50 with LOX IMVI was 14.4 µM (inactive); with M14, 11.4 µM (inactive); in the assay with OVCAR-8 it was 14.4 µM (inactive); with RXF 393, 15.8 µM (inactive); in the assay on SF-295 it was > 100 µM (inactive); in the assay with SK-MEL-2, 15.5 µM (inactive). The GI50 with SK-MEL-5 was 16.3 µM (inactive); in the assay on SN12C, 15.1 µM (inactive); in the assay on SNB-75, 20.8 µM (inactive); with SW-620, 3.6 µM (inactive).
Consider `O=C1CC2C=CC1C2CO` (stereo not drawn), for which the GI50 in the assay with A498, in the assay on ACHN, in the assay with CAKI-1, with CCRF-CEM, with HCT-116 and with IGROV-1 was > 100 µM (inactive) in each case. Besides, the GI50 in the assay on LOX IMVI, in the assay on M14, with NCI-H226, in the assay with NCI-H522, with OVCAR-8 and in the assay on RXF 393 was > 100 µM (inactive) in each case. In addition, the GI50 with SF-295, in the assay with SK-MEL-5, with SN12C, with SNB-75 and in the assay on SW-620 was > 100 µM (inactive) each time.
Turning to `COc1ccc(-c2ccccc2)c2[nH]c3c(c12)CCNC3=O`, the GI50 in the assay on A498, in the assay on CAKI-1, in the assay with CCRF-CEM, in the assay with HCT-116, in the assay on IGROV-1 and in the assay with LOX IMVI was > 100 µM (inactive) throughout. Also, the GI50 is > 100 µM (inactive) in the assay on M14; > 100 µM (inactive) with NCI-H226; > 100 µM (inactive) with NCI-H522; > 100 µM (inactive) in the assay on OVCAR-8; 45.6 µM (inactive) in the assay with RXF 393; > 100 µM (inactive) with SF-295. The GI50 in the assay with SK-MEL-5, with SN12C, in the assay on SNB-75 and in the assay on SW-620 was > 100 µM (inactive) throughout.
In the case of `COC(=O)CCC(=O)N1C/C(=C\c2ccccc2)C(=O)/C(=C/c2ccccc2)C1`, the GI50 was 2.24 µM (inactive) in the assay on A498; 1.97 µM (inactive) in the assay with ACHN; 1.75 µM (inactive) with CAKI-1; 2.74 µM (inactive) with CCRF-CEM; 0.41 µM (active) with HCT-116; 1.79 µM (inactive) in the assay on IGROV-1. In addition, the GI50 in the assay with LOX IMVI is 0.447 µM (active); in the assay with M14 it was 1.98 µM (inactive); with NCI-H226, 3.41 µM (inactive); in the assay with OVCAR-8, 3.1 µM (inactive); in the assay with RXF 393 it was 2.06 µM (inactive); with SF-295 it was 2.31 µM (inactive). The GI50 with SK-MEL-5 is 2.2 µM (inactive); with SN12C, 1.86 µM (inactive); in the assay with SNB-75 it was 2.29 µM (inactive); in the assay on SW-620 it was 0.191 µM (active).
As for `COc1ccc(NC(=O)CSc2nnc(-c3ccc(NC(C)=O)cc3)o2)cc1`, the GI50 with A498 is 15.5 µM (inactive); with ACHN, 16.7 µM (inactive); with CCRF-CEM, 9.55 µM (inactive); with HCT-116, 14.6 µM (inactive); with IGROV-1, 15.5 µM (inactive); with LOX IMVI, 10.9 µM (inactive). The GI50 with M14 is 17 µM (inactive); with NCI-H226, 24.3 µM (inactive); in the assay with NCI-H522 it was 14.5 µM (inactive); with OVCAR-8 it was 20.7 µM (inactive); with RXF 393, 14.5 µM (inactive); in the assay on SF-295 it was 15.3 µM (inactive). Besides, the GI50 with SK-MEL-2 is 19.1 µM (inactive); in the assay on SK-MEL-5 it was 13.2 µM (inactive); in the assay on SN12C it was 20 µM (inactive); with SNB-75 it was 63.1 µM (inactive).
With `CN1C2(c3ccccc3)C(C(=O)c3ccccc3)=C(C(=O)c3ccccc3)C1(c1ccccc1)c1c(-c3ccccc3)sc(-c3ccccc3)c12`, the GI50 with A498, in the assay with ACHN, in the assay on CAKI-1, with CCRF-CEM, in the assay with HCT-116 and in the assay with IGROV-1 was > 100 µM (inactive) each time. For the same compound, the GI50 with LOX IMVI is > 100 µM (inactive); with M14, > 100 µM (inactive); in the assay on NCI-H226, 78.5 µM (inactive); in the assay on NCI-H522, > 100 µM (inactive); with OVCAR-8 it was > 100 µM (inactive); with RXF 393, > 100 µM (inactive). In addition, the GI50 in the assay on SF-295, with SK-MEL-5, in the assay with SN12C, with SNB-75 and in the assay on SW-620 was > 100 µM (inactive) throughout.
In the case of `COc1cc2cccc(NC(=O)c3cc(OC)c(OC)c(OC)c3Br)c2cc1OC`, the GI50 in the assay with A498 was 30.5 µM (inactive); in the assay with ACHN, 11.5 µM (inactive); in the assay on CAKI-1 it was 17.6 µM (inactive); in the assay on CCRF-CEM, 4.56 µM (inactive); in the assay with HCT-116, 11.9 µM (inactive); with IGROV-1, 14.4 µM (inactive). The GI50 in the assay on M14 is 11.3 µM (inactive); with NCI-H522, 11.8 µM (inactive); with OVCAR-8 it was 12.9 µM (inactive); in the assay with SF-295, 12.5 µM (inactive); with SK-MEL-2 it was 19.8 µM (inactive); with SK-MEL-5 it was 3.24 µM (inactive). Also, the values for the GI50 with SN12C, with SNB-75 and with SW-620 were 16.6 µM (inactive), 26.9 µM (inactive) and 24.8 µM (inactive), respectively.
Regarding `COCCOCOc1ccc(OCOCCOC)c2c1C(=O)c1ccccc1C2=O`, the GI50 with A498 is 68.7 µM (inactive); in the assay with ACHN, 62.7 µM (inactive); with CAKI-1, 33.7 µM (inactive); in the assay with CCRF-CEM, 27 µM (inactive); in the assay with HCT-116, 29.4 µM (inactive); in the assay on IGROV-1, 99.1 µM (inactive). Further, the GI50 in the assay with LOX IMVI was 27.9 µM (inactive); with M14 it was > 100 µM (inactive); with NCI-H226 it was 90.2 µM (inactive); in the assay on OVCAR-8, 45.4 µM (inactive); in the assay on RXF 393, 29.4 µM (inactive); with SF-295 it was > 100 µM (inactive). The GI50 is > 74.1 µM (inactive) with SK-MEL-2; 51.8 µM (inactive) in the assay with SK-MEL-5; 51.4 µM (inactive) in the assay with SN12C; 99.3 µM (inactive) in the assay on SNB-75; 36.5 µM (inactive) with SW-620.

The values above are taken from ChEMBL document CHEMBL1201862, “PubChem BioAssay data set” (2004).
